From patent US20210000912A1, “Compositions And Methods For Prophylaxis Or Treatment Of Pain” (Interk Peptide Therapeutics Limited, priority 2017, published 2021)
Like-named read-outs stand apart in the source and are kept apart here. Non-standard residues stand in square brackets, D forms with d. Residues, ends and D or L forms follow the SMILES beside them. No end group written: not given here. Orn = NCCC[C@H](N)C(=O)O

Assays:
[1] = target: T1, c-Src (h) (Homo sapiens, UniProt P12931); assay: c-Src kinase activity assay, cell free; format: biochemical
T1 construct: purchased Eurofins Pharma Discovery Services UK Ltd (contract assay service)
Protocol: (§1) The capacity of test peptides to inhibit the activity of the kinases PKG1α, PKG1β, and Src family kinases in a cell free assay was assessed. The test peptides were amidated at their C-terminal end (indicated by “—NH2”) unless otherwise noted. Kinase activity assays were conducted by Eurofins Pharma Discovery Services UK Ltd (Dundee Technology Park, Dundee, United Kingdom) and Reaction Biology Corp. (Malvern, Pa., USA).
(§2) All test peptides are prepared to 50× final assay concentration in 100% DMSO. This working stock of the test compound is added to assay wells as the first component in the reaction, followed by the remaining components of the respective assay protocols described below. There is no pre-incubation step between the test peptide and the kinase prior to initiation of the reaction. The kinases are diluted in buffer (20 mM MOPS, 1 mM EDTA, 0.01% Brij-35, 5% Glycerol, 0.1% β-mercaptoethanol, 1 mg/mL BSA) prior to addition to the reaction mix.
(§3) Positive control wells contain all components of the reaction, except the test peptide of interest. However, DMSO (at a final concentration of 2%) is included in positive control wells to control for solvent effects. Negative control wells contain all components of the reaction, with a reference inhibitor (staurosporine) replacing the test peptide. This abolishes kinase activity and establishes a base-line (0% kinase activity). Kinase assay protocols (Eurofins Pharma Discovery Services UK Ltd, Dundee Technology Park, Dundee, United Kingdom) are described below. Of the Src family kinases, only the assay protocol for c-Src is shown.
(§4) c-Src (h) is incubated with 8 mM MOPS pH 7.0, 0.2 mM EDTA, 250 μM KVEKIGEGTYGVVYK (Cdc2 peptide), 10 mM MgAcetate and [γ-^33P]-ATP (specific activity approx. 500 cpm/pmol, concentration as required). The reaction is initiated by the addition of the MgATP mix. After incubation for 40 minutes at room temperature, the reaction is stopped by the addition of 3% phosphoric acid solution. A 10 μL aliquot of the reaction is then spotted onto a P30 filtermat and washed three times for 5 minutes in 75 mM phosphoric acid and once in methanol prior to drying and scintillation counting.

[2] = target: T2, PKG1α (h) (Homo sapiens, UniProt Q13976); assay: PKG1α kinase activity assay, cell free; format: biochemical
T2 construct: purchased Eurofins Pharma Discovery Services UK Ltd (contract assay service)
T2 sequence (Q13976 1-671): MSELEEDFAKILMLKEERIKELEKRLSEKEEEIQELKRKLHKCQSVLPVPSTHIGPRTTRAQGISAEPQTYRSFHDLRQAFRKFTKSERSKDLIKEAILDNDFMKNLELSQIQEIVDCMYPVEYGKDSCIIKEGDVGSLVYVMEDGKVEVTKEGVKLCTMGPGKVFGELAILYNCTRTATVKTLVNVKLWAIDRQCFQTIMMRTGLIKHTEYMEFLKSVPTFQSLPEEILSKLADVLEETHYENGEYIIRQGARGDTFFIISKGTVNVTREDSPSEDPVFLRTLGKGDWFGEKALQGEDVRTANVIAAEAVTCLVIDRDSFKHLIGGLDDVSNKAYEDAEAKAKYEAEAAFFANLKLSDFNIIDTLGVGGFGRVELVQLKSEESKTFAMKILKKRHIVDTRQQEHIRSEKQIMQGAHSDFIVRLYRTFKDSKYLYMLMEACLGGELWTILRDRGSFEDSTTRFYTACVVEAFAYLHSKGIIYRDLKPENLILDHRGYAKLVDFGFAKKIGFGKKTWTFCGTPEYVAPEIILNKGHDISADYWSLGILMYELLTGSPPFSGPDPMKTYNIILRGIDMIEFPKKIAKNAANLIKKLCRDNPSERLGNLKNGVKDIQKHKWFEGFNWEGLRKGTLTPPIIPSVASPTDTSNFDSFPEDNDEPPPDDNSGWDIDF
Protocol: as §1, §2, §3
as §4, with “PKG1α (h)” for “c-Src (h)”, “EDTA, 10” for “EDTA, 250”, “μM cGMP, 200 μM peptide RRRLSFAEPG,” for “μM KVEKIGEGTYGVVYK (Cdc2 peptide),”, “mM magnesium acetate” for “mM MgAcetate”, “5 mins” for “5 minutes”

[3] = target: T3, PKG1β (h) (Homo sapiens, UniProt Q13976); assay: PKG1β kinase activity assay, cell free; format: biochemical
T3 construct: purchased Eurofins Pharma Discovery Services UK Ltd (contract assay service)
T3 sequence (Q13976 1-686 isoform Q13976-2): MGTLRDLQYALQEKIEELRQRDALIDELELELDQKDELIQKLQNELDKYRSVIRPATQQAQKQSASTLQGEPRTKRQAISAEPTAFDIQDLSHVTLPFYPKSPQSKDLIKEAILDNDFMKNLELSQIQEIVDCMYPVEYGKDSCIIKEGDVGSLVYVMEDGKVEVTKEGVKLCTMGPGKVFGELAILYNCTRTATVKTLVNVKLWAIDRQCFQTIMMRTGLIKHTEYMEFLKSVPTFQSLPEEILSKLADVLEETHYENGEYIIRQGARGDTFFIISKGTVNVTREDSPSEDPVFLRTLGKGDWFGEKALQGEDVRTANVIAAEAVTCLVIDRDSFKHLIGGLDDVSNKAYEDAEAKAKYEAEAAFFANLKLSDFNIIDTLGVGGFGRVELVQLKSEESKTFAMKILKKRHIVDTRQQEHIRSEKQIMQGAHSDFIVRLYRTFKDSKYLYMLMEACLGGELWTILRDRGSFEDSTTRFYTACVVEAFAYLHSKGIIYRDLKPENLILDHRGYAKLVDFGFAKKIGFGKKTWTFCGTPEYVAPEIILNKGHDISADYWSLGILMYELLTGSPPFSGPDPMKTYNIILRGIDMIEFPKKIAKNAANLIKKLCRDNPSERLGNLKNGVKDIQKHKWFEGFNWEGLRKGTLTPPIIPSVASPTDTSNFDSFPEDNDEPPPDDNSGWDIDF
Protocol: as §1, §2, §3
as §4, with “PKG1b(h) is” for “c-Src (h) is”, “EDTA, 10” for “EDTA, 250”, “μM cGMP, 200 μM RRRLSFAEPG,” for “μM KVEKIGEGTYGVVYK (Cdc2 peptide),”, “mM magnesium acetate” for “mM MgAcetate”, “5 mins” for “5 minutes”

[4] = Resistance to simulated gastric fluid; format: in vitro ADME
Protocol: Test 14 Arg peptides consisting of 14 contiguous L- or D-arginine amino acids were tested for resistance to simulated gastric fluid (porcine pepsin in a HCl and NaCl solution) at a pH of 2.01 for a period of 24 hours. Negligible degradation of each peptide was observed by exposure to the simulated gastric fluid over the 24 hour test period.

[5] = cell free, 40 minutes at room temperature, read-out: c-Src IC50
[6] = cell free, 10 μM cGMP, 40 minutes at room temperature, read-out: PKG1α IC50
[7] = cell free, 10 μM cGMP, 40 minutes at room temperature, read-out: PKG1β IC50

T1 sequence (P12931 whole entry): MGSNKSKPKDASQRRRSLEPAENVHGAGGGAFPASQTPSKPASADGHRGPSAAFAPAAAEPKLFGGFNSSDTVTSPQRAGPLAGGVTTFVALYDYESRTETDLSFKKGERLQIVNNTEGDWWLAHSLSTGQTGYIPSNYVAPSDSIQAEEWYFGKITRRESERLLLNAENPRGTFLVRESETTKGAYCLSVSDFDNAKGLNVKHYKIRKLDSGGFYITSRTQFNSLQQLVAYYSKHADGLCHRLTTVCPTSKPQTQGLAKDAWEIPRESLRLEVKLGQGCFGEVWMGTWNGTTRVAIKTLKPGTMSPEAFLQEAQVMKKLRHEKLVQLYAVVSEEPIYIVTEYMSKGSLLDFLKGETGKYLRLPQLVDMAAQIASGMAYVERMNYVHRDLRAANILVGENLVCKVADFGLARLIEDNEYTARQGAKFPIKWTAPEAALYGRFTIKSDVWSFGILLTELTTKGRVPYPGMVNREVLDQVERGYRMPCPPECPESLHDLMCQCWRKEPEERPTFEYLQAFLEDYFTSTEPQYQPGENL

Row | IC50 [1, 5] [nM] | IC50 [2, 6] [nM] | IC50 [3, 7] [nM] | Compound | IC50 [1] [nM] | IC50 [2] [nM] | IC50 [3] [nM] | also measured
1 |  |  |  | N=C(N)NCCC[C@H](NC(=O)[C@H](CCCNC(=N)N)NC(=O)[C@H](CCCNC(=N)N)NC(=O)[C@H](CCCNC(=N)N)NC(=O)[C@H](CCCNC(=N)N)NC(=O)[C@H](CCCNC(=N)N)NC(=O)[C@H](CCCNC(=N)N)NC(=O)[C@H](CCCNC(=N)N)NC(=O)[C@H](CCCNC(=N)N)NC(=O)[C@H](CCCNC(=N)N)NC(=O)[C@H](CCCNC(=N)N)NC(=O)[C@@H](N)CCCNC(=N)N)C(N)=O [IK01200, RRRRRRRRRRRR-NH2] | 6 | 8 | 7 | 
2 |  |  |  | N=C(N)NCCC[C@H](NC(=O)[C@H](CCCNC(=N)N)NC(=O)[C@H](CCCNC(=N)N)NC(=O)[C@H](CCCNC(=N)N)NC(=O)[C@H](CCCNC(=N)N)NC(=O)[C@H](CCCNC(=N)N)NC(=O)[C@H](CCCNC(=N)N)NC(=O)[C@H](CCCNC(=N)N)NC(=O)[C@H](CCCNC(=N)N)NC(=O)[C@H](CCCNC(=N)N)NC(=O)[C@H](CCCNC(=N)N)NC(=O)[C@H](CCCNC(=N)N)NC(=O)[C@H](CCCNC(=N)N)NC(=O)[C@@H](N)CCCNC(=N)N)C(=O)O [IK0140H, RRRRRRRRRRRRRR] | > 1000 | 7 | 7 | 
3 | 96 | > 1000 | > 1000 | KKKKKKKKKK-NH2 [IK00K00, KKKKKKKKKK-NH2, reference compound] |  |  |  | 
4 |  |  |  | N=C(N)NCCC[C@@H](N)C(=O)N[C@H](CCCNC(=N)N)C(=O)N[C@H](CCCNC(=N)N)C(=O)N[C@H](CCCNC(=N)N)C(=O)N[C@H](CCCNC(=N)N)C(=O)N[C@H](CCCNC(=N)N)C(=O)N[C@H](CCCNC(=N)N)C(=O)N[C@H](CCCNC(=N)N)C(=O)N[C@H](CCCNC(=N)N)C(=O)N[C@H](CCCNC(=N)N)C(=O)N[C@H](CCCNC(=N)N)C(=O)N[C@H](CCCNC(=N)N)C(=O)N[C@H](CCCNC(=N)N)C(=O)N[C@H](CCCNC(=N)N)C(N)=O [IKD01400, rrrrrrrrrrrrrr-NH2] | 6 | 11 | 10 | remaining at 1 h ([4]; pig, simulated gastric fluid with porcine pepsin, simulated gastric fluid pH 2.01, 1 hr, read-out: % of intact peptide observed): 98.9%; remaining at 4 h ([4]; pig, simulated gastric fluid with porcine pepsin, simulated gastric fluid pH 2.01, 4 hrs, read-out: % of intact peptide observed): 98.7%; remaining at 24 h ([4]; pig, simulated gastric fluid with porcine pepsin, simulated gastric fluid pH 2.01, 24 hrs, read-out: % of intact peptide observed): 97.5%; % of intact peptide observed ([4]; simulated gastric fluid pH 2.01, time 0): 98.79%
5 | > 1000 | > 1000 | > 1000 | HHHHHHHHHH-NH2 [IK00010, HHHHHHHHHH-NH2, reference compound] |  |  |  | 
6 | 100 | > 1000 | 457 | N=C(N)NCCC[C@H](NC(=O)[C@H](CCCNC(=N)N)NC(=O)[C@H](CCCNC(=N)N)NC(=O)[C@H](CCCNC(=N)N)NC(=O)[C@H](CCCNC(=N)N)NC(=O)[C@@H](N)CCCNC(=N)N)C(N)=O [IK00600, RRRRRR-NH2] |  |  |  | 
7 | 4 | 33.5 | 22 | N=C(N)NCCC[C@H](NC(=O)[C@H](CCCNC(=N)N)NC(=O)[C@H](CCCNC(=N)N)NC(=O)[C@H](CCCNC(=N)N)NC(=O)[C@H](CCCNC(=N)N)NC(=O)[C@H](CCCNC(=N)N)NC(=O)[C@H](CCCNC(=N)N)NC(=O)[C@H](CCCNC(=N)N)NC(=O)[C@@H](N)CCCNC(=N)N)C(N)=O [IK00900, RRRRRRRRR-NH2] |  |  |  | 
8 | 4 | 6 | 4 | RRRRRRRRRRRRRRRR-NH2 [IK01600, RRRRRRRRRRRRRRRR-NH2] |  |  |  | 
9 | 26 | 75 | 55 | N=C(N)NCCC[C@H](NC(=O)[C@H](CCCNC(=N)N)NC(=O)[C@H](CCCNC(=N)N)NC(=O)[C@H](CCCNC(=N)N)NC(=O)[C@H](CCCNC(=N)N)NC(=O)[C@H](CCCNC(=N)N)NC(=O)[C@H](CCCNC(=N)N)NC(=O)[C@@H](N)CCCNC(=N)N)C(N)=O [IK00800, RRRRRRRR-NH2] |  |  |  | 
10 | 7 | 16 | 9 | N=C(N)NCCC[C@H](NC(=O)[C@H](CCCNC(=N)N)NC(=O)[C@H](CCCNC(=N)N)NC(=O)[C@H](CCCNC(=N)N)NC(=O)[C@H](CCCNC(=N)N)NC(=O)[C@H](CCCNC(=N)N)NC(=O)[C@H](CCCNC(=N)N)NC(=O)[C@H](CCCNC(=N)N)NC(=O)[C@H](CCCNC(=N)N)NC(=O)[C@@H](N)CCCNC(=N)N)C(N)=O [IK00100, RRRRRRRRRR-NH2] |  |  |  | 
11 |  | 6 | 6 | RRRRRRRRRRRRRRRRRRRR-NH2 [IK00200] |  |  |  | 
12 |  |  |  | NCCC[C@H](NC(=O)[C@H](CCCN)NC(=O)[C@H](CCCN)NC(=O)[C@H](CCCN)NC(=O)[C@H](CCCN)NC(=O)[C@H](CCCN)NC(=O)[C@H](CCCN)NC(=O)[C@H](CCCN)NC(=O)[C@H](CCCN)NC(=O)[C@@H](N)CCCN)C(N)=O [IKNOR10, OrnOrnOrnOrnOrnOrnOrnOrnOrnOrn-NH2, reference compound] (H-[Orn][Orn][Orn][Orn][Orn][Orn][Orn][Orn][Orn][Orn]-NH2; N-terminus assumed) | 7 | > 1000 | > 1000 | 
